What was measured:
[1] = biological target: T1, tryptophan synthetase (TS) of transformant AJ 12139 (Corynebacterium glutamicum, UniProt P06561); assay: TS (TSB) activity of crude enzyme solution of transformant AJ 12139 with added L-tryptophan; format: biochemical, Brevibacterium lactofermentum
T1 construct: plasmid pAJ 319 (pAJ 1844 vector) carrying trpA and trpB of AJ 12030, in TSA-deficient host No. 21
Protocol: (§1) A specimen strain was cultured in 20 ml of medium for L-tryptophan production (described hereinafter). From the cultured cells, a lysate was prepared by an ultrasonic wave treatment and centrifuged at 32,000×gfor 30 minutes to obtain the supernatant. The supernatant was used as a crude enzyme solution. Using an enzyme reaction solution (1 ml in total amount) consisting of 100 mM tris hydrochloride buffer (pH 7.8), 0.4 mM indole, 30 mM L-serine, 40 μm pyridoxal-5'-phosphate and 180 mM sodium chloride, TSB activity was measured. The reaction was carried out at 30° C. for 30 minutes, 0.1 ml of 1N NaOH was added, the remaining indole was extracted with toluene, color was then formed by an indole reagent and then the color was measured by a spectrophotometer (at […]).

[2] = biological target: T2, tryptophan synthetase (TS) of wild strain AJ 12036 (Corynebacterium glutamicum, UniProt P06561); assay: TS (TSB) activity of crude enzyme solution of wild strain AJ 12036 with added L-tryptophan; format: biochemical; settings: strain AJ 12036 crude enzyme, 20 mM L-Tryptophan added
T2 construct: that of the wild strain (AJ 12036); endogenous in cells; host or cells: wild strain AJ 12036 (FERM-P7559, FERM-BP 734), crude sonicate supernatant
T2 sequence (P06561 1-417): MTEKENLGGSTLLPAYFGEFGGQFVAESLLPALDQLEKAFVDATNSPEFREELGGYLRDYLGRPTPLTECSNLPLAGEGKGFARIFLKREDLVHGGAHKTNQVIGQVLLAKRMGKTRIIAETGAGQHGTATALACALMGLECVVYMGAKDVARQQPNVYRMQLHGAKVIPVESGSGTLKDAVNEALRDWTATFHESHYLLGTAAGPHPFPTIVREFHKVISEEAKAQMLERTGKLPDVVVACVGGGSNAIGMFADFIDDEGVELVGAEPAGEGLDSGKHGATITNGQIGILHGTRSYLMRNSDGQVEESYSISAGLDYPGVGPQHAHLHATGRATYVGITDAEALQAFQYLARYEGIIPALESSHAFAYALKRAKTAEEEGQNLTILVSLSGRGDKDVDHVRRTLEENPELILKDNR
T2 sequence (P06562 1-280 partner): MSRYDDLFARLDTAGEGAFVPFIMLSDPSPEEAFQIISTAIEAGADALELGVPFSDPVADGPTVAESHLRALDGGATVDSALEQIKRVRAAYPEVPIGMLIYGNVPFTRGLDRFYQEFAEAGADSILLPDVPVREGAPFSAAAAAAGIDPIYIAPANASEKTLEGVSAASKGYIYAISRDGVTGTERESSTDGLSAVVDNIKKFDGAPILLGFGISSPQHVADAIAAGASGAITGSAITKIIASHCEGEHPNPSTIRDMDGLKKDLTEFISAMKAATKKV
Protocol: as §1

N[C@@H](Cc1c[nH]c2ccccc12)C(=O)O [L-Tryptophan, L-tryptophan]
inhibition of TS activity of the transformant (in words) ([1]; in the presence of 20 mM L-tryptophan): inhibited only slightly
TS activity (amount of decreased indole in mole/min/mg amount of protein) ([1]; strain AJ 12139 crude enzyme, 20 mM L-Tryptophan added, 30° C., 30 minutes, 0 mM control 81.0): 66.4 mole/min/mg amount of protein
TS activity, relative value in parentheses (0 mM = 100) ([1]; strain AJ 12139 crude enzyme, 20 mM L-Tryptophan added, 30 min): 82
activity at 20000 µM ([2]; 0.5 h, read-out: TS activity, relative value in parentheses (0 mM = 100)): 65%
TS activity (amount of decreased indole in mole/min/mg amount of protein) ([2]; 30° C., 30 minutes, 0 mM control 7.1): 4.6 mole/min/mg amount of protein
